According to article PMC8645336, “Benchmarking a highly selective USP30 inhibitor for enhancement of mitophagy and pexophagy” (Life Science Alliance, 2021):

Legend:
Ataxin3L = target: T1, Ataxin3L (Homo sapiens, UniProt Q9H3M9); test: biochemical; design: Ubiquigent DUB profiler selectivity panel, remaining enzyme activity as % of control; conditions: read-out: % of control remaining
T1 construct: gene ATXN3L
T1 sequence (Q9H3M9 1-355): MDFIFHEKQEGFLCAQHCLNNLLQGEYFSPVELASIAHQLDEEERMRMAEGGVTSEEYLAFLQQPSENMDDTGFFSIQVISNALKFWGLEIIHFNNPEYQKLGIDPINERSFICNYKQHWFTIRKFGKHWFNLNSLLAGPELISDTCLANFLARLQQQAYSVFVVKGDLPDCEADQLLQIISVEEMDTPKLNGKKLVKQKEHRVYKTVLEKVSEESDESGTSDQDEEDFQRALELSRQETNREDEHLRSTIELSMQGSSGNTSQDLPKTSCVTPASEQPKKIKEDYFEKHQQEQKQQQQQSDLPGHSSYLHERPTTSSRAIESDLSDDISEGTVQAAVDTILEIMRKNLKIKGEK
How it was run: (§1)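 In YFP-PRKN-overexpressing hTERT-RPE1 cells, 1 h antimycin A plus oligomycin A (1 μM each) with CMPD-39, then Western blot of TOMM20 ubiquitylation. Target engagement: 2 h compound, then 10 min HA-Ub-PA at 37°C, read as USP30 shift. DUB panel (>40 enzymes) screened at 1-100 μM.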

USP36 = target: T2, USP36 (Homo sapiens, UniProt Q9P275); test: biochemical; design: Ubiquigent DUB profiler selectivity panel, remaining enzyme activity as % of control; conditions: read-out: % of control remaining
T2 sequence (Q9P275 1-1123): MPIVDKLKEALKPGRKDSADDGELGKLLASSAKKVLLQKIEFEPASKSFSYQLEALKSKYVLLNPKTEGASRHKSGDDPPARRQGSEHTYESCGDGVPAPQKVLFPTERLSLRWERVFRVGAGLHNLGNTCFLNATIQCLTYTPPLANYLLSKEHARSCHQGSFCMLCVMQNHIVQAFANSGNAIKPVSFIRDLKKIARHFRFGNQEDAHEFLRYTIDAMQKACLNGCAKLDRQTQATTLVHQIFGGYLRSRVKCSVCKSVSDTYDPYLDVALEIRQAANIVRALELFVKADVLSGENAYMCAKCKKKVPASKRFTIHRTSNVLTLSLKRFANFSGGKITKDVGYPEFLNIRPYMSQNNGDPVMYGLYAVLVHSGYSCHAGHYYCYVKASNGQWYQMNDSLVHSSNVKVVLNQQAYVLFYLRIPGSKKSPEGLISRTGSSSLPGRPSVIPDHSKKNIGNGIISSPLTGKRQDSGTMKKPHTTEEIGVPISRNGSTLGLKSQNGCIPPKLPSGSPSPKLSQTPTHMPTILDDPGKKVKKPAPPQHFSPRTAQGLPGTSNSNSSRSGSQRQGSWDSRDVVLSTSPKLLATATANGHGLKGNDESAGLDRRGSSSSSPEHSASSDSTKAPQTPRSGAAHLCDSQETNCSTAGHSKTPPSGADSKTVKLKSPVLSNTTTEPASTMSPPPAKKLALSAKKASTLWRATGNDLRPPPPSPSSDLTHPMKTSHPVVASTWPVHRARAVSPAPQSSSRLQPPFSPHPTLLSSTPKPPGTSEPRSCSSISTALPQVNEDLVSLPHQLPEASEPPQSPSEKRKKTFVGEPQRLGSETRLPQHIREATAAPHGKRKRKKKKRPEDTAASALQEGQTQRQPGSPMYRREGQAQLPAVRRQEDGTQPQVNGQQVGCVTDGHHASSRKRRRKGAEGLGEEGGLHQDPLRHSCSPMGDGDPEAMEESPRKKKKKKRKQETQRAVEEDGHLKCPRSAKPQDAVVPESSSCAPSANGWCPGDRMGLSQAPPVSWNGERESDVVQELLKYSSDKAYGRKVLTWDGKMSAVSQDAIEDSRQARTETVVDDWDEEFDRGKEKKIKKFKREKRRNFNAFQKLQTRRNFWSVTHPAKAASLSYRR
How it was run: as §1

remaining activity at 1 µM (USP36): 110%
remaining activity at 10 µM (USP36): 98.8%
remaining activity at 100 µM (USP36): 94.8%
SMILES: CC(C)(C)NS(=O)(=O)c1ccc(NC(=O)[C@H](Cc2ccccc2)NC(=O)c2ccc(F)cc2)cc1 [compound 39, CMPD-39]
remaining activity at 1 µM (Ataxin3L): 103%
remaining activity at 10 µM (Ataxin3L): 101%
remaining activity at 100 µM (Ataxin3L): 102%
